# According to BindingDB's records for patent US20230416268 (Enanta Pharmaceuticals, 2023):
# Target: T1, 17-beta-hydroxysteroid dehydrogenase 13 (Homo sapiens, UniProt Q7Z5P4)
# T1 sequence (Q7Z5P4 whole entry): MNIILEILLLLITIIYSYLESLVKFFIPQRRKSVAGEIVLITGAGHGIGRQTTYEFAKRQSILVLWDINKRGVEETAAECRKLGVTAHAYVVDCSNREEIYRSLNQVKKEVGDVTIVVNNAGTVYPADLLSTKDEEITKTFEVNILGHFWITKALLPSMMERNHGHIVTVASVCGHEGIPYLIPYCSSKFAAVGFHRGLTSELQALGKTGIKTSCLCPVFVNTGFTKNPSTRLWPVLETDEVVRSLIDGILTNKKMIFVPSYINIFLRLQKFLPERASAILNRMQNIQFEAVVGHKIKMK
# Test: 17β-HSD13 Rapid-Fire Mass Spectrometry Assay
# Excerpt: Recombinant human 17β-HSD13 was expressed and purified from sf9 cells at Charles River Labs (Saffron Walden, UK). Leukotriene B4 (Catalog #71160-24-2) and 12-oxoleukotriene B4 (Catalog #20140) were purchased from Cayman Chemicals (Ann Arbor, MI). NAD+ (Catalog #N8285), BSA (Catalog #A7030), DMSO (Catalog #D2650), and Tween-20 (Catalog #11332465001) were purchased from Sigma (St. Louis, MO). Formic acid (Catalog #28905) was from ThermoFisher Scientific and 384 deep well PP microplates (Catalog #784261) were from Greiner Bio-One. In a typical IC50 assay performed in a 384w PP microplate, test compounds (0-100 μM) were incubated with HSD17B13 (80 nM), LTB4 (10 μM), and NAD+ (0.5 mM) in 10 μL assay buffer (20 mM Tris (pH 7.5), BSA (0.005%), and Tween-20 (0.01%)) at RT for 3 h. The assays were quenched by adding 20 μL of 0.15% aqueous formic acid and the plates were frozen at −80° C. RF/MS analysis was performed at PureHoney Technologies (Billerica, MA) on a RapidFire RF300 system (Agilent Technologies, Inc.) coupled to an API 4000 triple quadrupole mass spectrometer (Sciex) equipped with Agilent RapidFire cartridge type A (C4). […] Leukotriene B4 (335.3) and 12-oxoLeukotriene B4 (333.3) SRM transitions were optimized with Discovery Quant software and extracted ion counts for these analytes were determined.
smiles,measurement,value
"COc1ccc(-c2nc3sc4c(O)cccc4c3c(=O)n2CCNCc2cnc[nH]2)c(C2CC2)c1 [US20230416268, Example 31]",IC50,< 100 nM
